Some results are limits rather than exact numbers.

Here are results for 26 molecules from patent US20100120798A1, “SUBSTITUTED PIPERIDINES CONTAINING A HETEROARYLAMIDE OR HETEROARYLPHENYL MOIETY” (ASTEX THERAPEUTICS LIMITED, priority 2006, published 2010).

A short description of the test: In vitro MDA-MB-468 human breast adenocarcinoma GSK-3 phosphorylation assay. It is filed as cell-based. Particulars: mean IC50, MDA-MB-468 cells, 2 hours with compound, phospho-GSK-3β. An excerpt:
This assay determines the ability of test compounds to inhibit phosphorylation of Serine-9 residue in Glycogen Synthase Kinase-3beta (GSK-3β) as a surrogate marker of cellular PKB (Akt) activity, as assessed using Acumen Explorer Fluorescent Plate-Reader technology. A MDA-MB-468 human breast adenocarcinoma cell line (LGC Promochem, Teddington, Middlesex, UK, Catalogue No. HTB-132) was routinely maintained in Dulbecco's modified Eagle's growth medium (DMEM; Invitrogen Limited, Paisley, UK Catalogue No. 11966-025) containing 10% heat-inactivated foetal calf serum (FCS; Sigma, Poole, Dorset, UK, Catalogue No. F0392) and 1% L-glutamine (Gibco, Catalogue No. 25030-024) at 37° C. with 5% CO2 up to a confluency of 70-90%.
For the phosphorylation assay, the cells were detached from the culture flask using Trypsin-EDTA (Invitrogen Limited, Catalogue No. 25300-062) and seeded into the wells of a black transparent-bottom Corning Costar Polystyrene 96 well plate (Fisher Scientific UK, Loughborough, Leicestershire, UK; Catalogue No. 3904 and DPS-130-020K) at a density of 5000 cells per well in 100 μl of complete growth media. The cells were incubated overnight at 37° C. with 5% CO2 to allow them to adhere.
On day 2, the cells were treated with test compounds and incubated for 2 hours at 37° C. with 5% CO2. Test compounds were prepared as 10 mM stock solutions in DMSO and dosed directly to required concentration into test wells using non-contact (acoustic dispensing of multiple 2.5 nl droplets directly into assay wells) ECHO dosing technology (Labcyte Inc. Sunnyvale, Calif., USA). Each plate contained control wells without test compound.
20 μl of fixing buffer (Phosphate Buffered Saline (PBS) containing 10% formaldehyde; Sigma; Catalogue No. F1635) was then added to each well to give a final well concentration 1.6%. Plates were then incubated for 30 minutes at room temperature prior to the fixative being removed. Each well was washed once with 250 μl of PBS and then 50 μl PBS added to each well. PBS was then aspirated and cells permeabilised and blocked by incubating each well with 50 μl of permeabilisation/blocking buffer (PBS containing 0.5% Tween 20 (Sigma; Catalogue No. P5927) and 5% Marvel Milk Powder (Andrews Pharmacy Ltd, Macclesfield, Cheshire, UK; Catalogue No. APC100199)) for 1 hour at room temperature prior to staining.
Following removal of Perm/Block buffer, 50 μl of primary anti-phospho-GSK-3β antibody (Cell Signalling Technology (New England Biolabs (Uk) Ltd.), Hitchin, Hertfordshire, UK; Catalogue No. 9336 diluted 1:400 in Blocking buffer (PBS containing 5% Marvel and 0.05% Tween/Polysorbate 20) was added to each well and incubated overnight at 4° C.
Each well was washed three times in 250 μl of wash buffer (PBS containing 0.05% polysorbate 20), and cells incubated for 1 hour at room temperature with 50 μl of secondary fluorescently-labelled anti-rabbit Alexa Fluor 488 antibody (Molecular Probes, Invitrogen Limited, Catalogue No. A11008) diluted 1:750 in blocking buffer. Plates were washed three times in 250 μl of wash buffer and stored containing 50 μl of PBS at 4° C. until required.
Plates were analysed using an Acumen Explorer Plate-reader to quantify level of fluorescent signal that represents quantity of phosphorylated-GSK-3β.
IC50 calculation—IC50 is the concentration of compound required to give 50% effect over the range of activity affected by the compound, between maximum (no compound) and minimum (excess level of compound) response control data. IC50 values were determined by fitting background corrected, dose response assay data to a 4 parameter logistic curve fit equation model with the minimum response set to zero. This was done using an in-house developed algorithm within the Origin graphing software package (OriginLab Corporation, Northampton, Mass., USA). […]

Broadly, the IC50 is the concentration needed to halve the response being measured. As to `NC1(C(=O)NCc2ccncc2)CCN(c2ncnc3[nH]ccc23)CC1` [Example 43, 4-Amino-N-(pyridin-4-ylmethyl)-1-(7H-pyrrolo[2,3-d]pyrimidin-4-yl)piperidine-4-carboxamide], the IC50 was more than 19000 nM.

Turning to `NC1(C(=O)NCc2cc(-c3ccc(Cl)cc3)no2)CCN(c2ncnc3[nH]ccc23)CC1` [Example 44, 4-amino-N-[[3-(4-chlorophenyl)-1,2-oxazol-5-yl]methyl]-1-(7H-pyrrolo[2,3-d]pyrimidin-4-yl)piperidine-4-carboxamide], the IC50 is 19000 nM.

Turning to `Cn1cc(CNC(=O)C2(N)CCN(c3ncnc4[nH]ccc34)CC2)cn1` [Example 45, 4-amino-N-[(1-methylpyrazol-4-yl)methyl]-1-(7H-pyrrolo[2,3-d]pyrimidin-4-yl)piperidine-4-carboxamide], the IC50 is more than 19000 nM.

For the molecule `NC1(C(=O)NCc2cnc(-c3ccccc3)s2)CCN(c2ncnc3[nH]ccc23)CC1` [Example 46, 4-Amino-1-(7H-pyrrolo[2,3-d]pyrimidin-4-yl)-piperidine-4-carboxylic acid (2-phenyl-thiazol-5-ylmethyl)-amide], the IC50 came to 14000 nM.

For `Cc1ccsc1CNC(=O)C1(N)CCN(c2ncnc3[nH]ccc23)CC1` [Example 47, 4-Amino-1-(7H-pyrrolo[2,3-d]pyrimidin-4-yl)-piperidine-4-carboxylic acid (3-methyl-thiophen-2-ylmethyl)-amide], the IC50 stood at 3900 nM.

With `NC1(C(=O)NCc2cc(Br)no2)CCN(c2ncnc3[nH]ccc23)CC1` [Example 48, 4-Amino-1-(7H-pyrrolo[2,3-d]pyrimidin-4-yl)-piperidine-4-carboxylic acid (3-bromo-isoxazol-5-ylmethyl)-amide], the IC50 was determined as 380 nM.

For the molecule `Cc1cc(CNC(=O)C2(N)CCN(c3ncnc4[nH]ccc34)CC2)on1` [Example 49, 4-Amino-1-(7H-pyrrolo[2,3-d]pyrimidin-4-yl)-piperidine-4-carboxylic acid (3-methyl-isoxazol-5-ylmethyl)-amide], the IC50 was determined as 4200 nM.

Take `NC1(C(=O)NCc2cc3ccccc3[nH]2)CCN(c2ncnc3[nH]ccc23)CC1` [Example 50, 4-Amino-1-(7H-pyrrolo[2,3-d]pyrimidin-4-yl)-piperidine-4-carboxylic acid (1H-indol-2-ylmethyl)-amide]: the IC50 stood at 700 nM.

Turning to `Cn1cc(-c2cccc(C3(CN)CCN(c4ncnc5[nH]ccc45)CC3)c2)cn1` [Example 51, (4-(3-(1-Methyl-1H-pyrazol-4-yl)phenyl)-1-(7H-pyrrolo[2,3-d]pyrimidin-4-yl)piperidin-4-yl)methanamine], the IC50 is less than 17 nM.

Consider `NC1(C(=O)Nc2cccc(-c3nc4ccccc4o3)c2)CCN(c2ncnc3[nH]ccc23)CC1` [Example 52, 4-Amino-1-(7H-pyrrolo[2,3-d]pyrimidin-4-yl)-piperidine-4-carboxylic acid (3-benzooxazol-2-yl-phenyl)-amide], for which the IC50 worked out at 5100 nM.

For `Cc1cnc(NC(=O)C2(CN)CCN(c3ncnc4[nH]ccc34)CC2)s1` [Example 59, 4-(aminomethyl)-N-(5-methylthiazol-2-yl)-1-(7H-pyrrolo[2,3-d]pyrimidin-4-yl)piperidine-4-carboxamide], the IC50 turned out to be 200 nM.

Turning to `NCC1(C(=O)Nc2ccc(F)cn2)CCN(c2ncnc3[nH]ccc23)CC1` [Example 60, 4-(aminomethyl)-N-(5-fluoropyridin-2-yl)-1-(7H-pyrrolo[2,3-d]pyrimidin-4-yl)piperidine-4-carboxamide], the IC50 came to 330 nM.

With `NCC1(C(=O)Nc2ccc(C(F)(F)F)cn2)CCN(c2ncnc3[nH]ccc23)CC1` [Example 61, 4-(Aminomethyl)-1-(7H-pyrrolo[2,3-d]pyrimidin-4-yl)-N-(5-(trifluoromethyl)pyridin-2-yl)piperidine-4-carboxamide], the IC50 was determined as 47 nM.

Consider `NCC1(C(=O)Nc2nc3ccccc3s2)CCN(c2ncnc3[nH]ccc23)CC1` [Example 63, 4-(Aminomethyl)-N-(benzo[d]thiazol-2-yl)-1-(7H-pyrrolo[2,3-d]pyrimidin-4-yl)piperidine-4-carboxamide], for which the IC50 is 170 nM.

As to `Cn1cc(-c2cc(F)cc(C3(CN)CCN(c4ncnc5[nH]ccc45)CC3)c2)cn1` [Example 70, (4-(3-fluoro-5-(1-methyl-1H-pyrazol-4-yl)phenyl)-1-(7H-pyrrolo[2,3-d]pyrimidin-4-yl)piperidin-4-yl)methanamine], the IC50 was found to be 59 nM.

On to `NCC1(c2cc(F)cc(-c3cncc(F)c3)c2)CCN(c2ncnc3[nH]ccc23)CC1` [Example 71, (4-(3-Fluoro-5-(5-fluoropyridin-3-yl)phenyl)-1-(7H-pyrrolo[2,3-d]pyrimidin-4-yl)piperidin-4-yl)methanamine], for which the IC50 is 17 nM.

Regarding `Cc1cnc(NC(=O)C2(CN)CCN(c3ncnc4[nH]cnc34)CC2)s1` [Example 72, 4-(Aminomethyl)-N-(5-methylthiazol-2-yl)-1-(9H-purin-6-yl)piperidine-4-carboxamide], the IC50 worked out at 310 nM.

On to `NCC1(c2cccc(-c3cn[nH]c3)c2)CCN(c2ncnc3[nH]ccc23)CC1` [Example 73, [4-[3-(1H-Pyrazol-4-yl)phenyl]-1-(7H-pyrrolo[3,2-e]pyrimidin-4-yl)piperidin-4-yl]methanamine], for which the IC50 is 150 nM.

Take `Cc1ccncc1-c1cccc(C2(CN)CCN(c3ncnc4[nH]ccc34)CC2)c1` [Example 74, [4-[3-(4-methylpyridin-3-yl)phenyl]-1-(7H-pyrrolo[3,2-e]pyrimidin-4-yl)piperidin-4-yl]methanamine]: the IC50 worked out at 55 nM.

In the case of `NCC1(c2cccc(-c3ccncc3)c2)CCN(c2ncnc3[nH]ccc23)CC1` [Example 75, [4-(3-pyridin-4-ylphenyl)-1-(7H-pyrrolo[3,2-e]pyrimidin-4-yl)piperidin-4-yl]methanamine], the IC50 is 65 nM.

Regarding `NCC1(c2cccc(-c3cccnc3)c2)CCN(c2ncnc3[nH]ccc23)CC1` [Example 76, [4-(3-pyridin-3-ylphenyl)-1-(7H-pyrrolo[3,2-e]pyrimidin-4-yl)piperidin-4-yl]methanamine], the IC50 turned out to be 33 nM.

As for `NCC1(c2cccc(-c3cncnc3)c2)CCN(c2ncnc3[nH]ccc23)CC1` [Example 77, [4-(3-pyrimidin-5-ylphenyl)-1-(7H-pyrrolo[3,2-e]pyrimidin-4-yl)piperidin-4-yl]methanamine], the IC50 turned out to be 35 nM.

Consider `NCC1(c2cccc(-c3ccco3)c2)CCN(c2ncnc3[nH]ccc23)CC1` [Example 78, [4-[3-(furan-2-yl)phenyl]-1-(7H-pyrrolo[3,2-e]pyrimindin-4-yl)piperidin-4-yl]methanamine], for which the IC50 was determined as 50 nM.

Regarding `NCC1(c2cccc(-c3ccoc3)c2)CCN(c2ncnc3[nH]ccc23)CC1` [Example 79, [4-(3-furan-3-ylphenyl)-1-(7H-pyrrolo[3,2-e]pyrimidin-4-yl)piperidin-4-yl]methanamine], the IC50 came to 48 nM.

In the case of `NCC1(c2cccc(-c3cnoc3)c2)CCN(c2ncnc3[nH]ccc23)CC1` [Example 80, [4-[3-(1,2-oxazol-4-yl)phenyl]-1-(7H-pyrrolo[3,2-e]pyrimidin-4-yl)piperidin-4-yl]methanamine], the half-inhibitory concentration (IC50) was determined as 100 nM.

Turning to `NCC1(C(=O)Nc2ccc(Cl)cn2)CCN(c2ncnc3[nH]ccc23)CC1` [Example 81, 4-(Aminomethyl)-N-(5-chloropyridin-2-yl)-1-(7H-pyrrolo[2,3-d]pyrimidin-4-yl)piperidine-4-carboxamide], the IC50 was determined as 73 nM.
